One assay concerns the target T1, AKT2/PKBβ (Homo sapiens, UniProt P31751, S474D).
T1 construct: ΔPH-PKBβ-S474D
The assay can be described thus: […]-γ-ATP radiometric kinase assay with purified kinase and Crosstide peptide. The assay is classed as biochemical.

Another assay deals with T2, AKT1/PKBα (Homo sapiens, UniProt P31749, S473D).
T2 construct: ΔPH-PKBα-S473D
The description is as above. The assay is classed as biochemical.

The results in this text go back to PMC9683054, “Synthesis of N-(4-chlorophenyl) substituted pyrano[2,3-c]pyrazoles enabling PKBβ/AKT2 inhibitory and in vitro anti-glioma activity” (Annals of Medicine, 2022).

Molecules are shown by their SMILES.

T1 sequence (P31751 119-481 S474D limits assumed): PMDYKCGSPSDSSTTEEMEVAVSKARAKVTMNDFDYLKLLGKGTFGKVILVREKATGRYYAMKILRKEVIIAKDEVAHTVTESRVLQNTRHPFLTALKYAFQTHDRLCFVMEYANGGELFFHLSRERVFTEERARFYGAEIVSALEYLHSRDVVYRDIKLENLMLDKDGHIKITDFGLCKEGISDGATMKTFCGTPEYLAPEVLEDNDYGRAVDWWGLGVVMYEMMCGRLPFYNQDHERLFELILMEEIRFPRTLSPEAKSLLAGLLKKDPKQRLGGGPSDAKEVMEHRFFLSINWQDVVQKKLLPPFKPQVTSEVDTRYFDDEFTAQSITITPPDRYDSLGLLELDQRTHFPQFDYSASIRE
T2 sequence (P31749 118-480 S473D limits assumed): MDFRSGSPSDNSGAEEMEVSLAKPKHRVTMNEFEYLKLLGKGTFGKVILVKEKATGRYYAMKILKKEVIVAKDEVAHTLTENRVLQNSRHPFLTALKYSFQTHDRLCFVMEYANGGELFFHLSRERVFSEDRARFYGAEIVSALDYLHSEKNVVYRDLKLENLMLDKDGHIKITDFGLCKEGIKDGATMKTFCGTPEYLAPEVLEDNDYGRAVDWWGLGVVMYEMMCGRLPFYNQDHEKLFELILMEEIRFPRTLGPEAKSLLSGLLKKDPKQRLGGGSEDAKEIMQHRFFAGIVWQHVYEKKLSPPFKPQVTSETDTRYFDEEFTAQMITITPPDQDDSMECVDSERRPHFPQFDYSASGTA

The IC50 is the midpoint of a concentration-inhibition curve. Read a high IC50 as a need for much substance. `Cc1nn(-c2ccc(Cl)cc2)c2c1C(c1ccc(-c3ccccc3)cc1)C(C#N)=C(N)O2` (centres unmarked) [4j, 6-Amino-4-(biphenyl-4-yl)-1-(4-chlorophenyl)-3-methyl-1,4-dihydropyrano[2,3-c]pyrazole-5-carbonitrile]: the IC50 on AKT2/PKBβ worked out at 12 µM; against AKT1/PKBα it was 14 µM.
